Experimental data from patent US20160201063A1, “EPIGENETIC REGULATORS OF FRATAXIN” (RANA THERAPEUTICS, INC., priority 2013, published 2016).
Where a name gives a salt, the structure may show the parent alone.

Assays:
FXN mRNA [1] = assay: Screen of library of eighty epigenetic inhibitors in GM03816 FRDA diseased fibroblasts, FXN mRNA fold change; format: cell-based, human; conditions: for fold induction at 1 µM / fold induction at 5 µM: Homo sapiens, Fibroblast, 72 h; for fold induction at 1 µM: read-out: 3816 1 uM (FXN mRNA fold change); for fold induction at 5 µM: read-out: 3816 5 uM (FXN mRNA fold change)
Experimental: FXN RNA levels are indicated on the y-axis and the inhibitors used at both 1 μM and 5 μM are shown on the x-axis.
A screen of a library of eighty epigenetic inhibitors (Cayman Chemical) was performed in GM03816 FRDA fibroblasts to identify epigenetic regulators that upregulate FXN expression.

FXN mRNA [2] = assay: Screen of epigenetic inhibitors in GM0321 normal fibroblasts, FXN RNA levels; format: cell-based, human; conditions: for fold induction at 1 µM / fold induction at 5 µM: Homo sapiens, Fibroblast, 72 h; for fold induction at 1 µM: read-out: FXN mRNA fold change, 321B 1 uM; for fold induction at 5 µM: read-out: FXN mRNA fold change, 321B 5 uM
[3] = GM03816 FRDA diseased fibroblasts, 1 uM inhibitor, 3 days of treatment
[4] = GM03816 FRDA diseased fibroblasts, 5 uM inhibitor, 3 days of treatment
[5] = GM0321 normal fibroblasts, 1 uM inhibitor, 3 days of treatment
[6] = GM0321 normal fibroblasts, 5 uM inhibitor, 3 days of treatment

Compound | fold induction at 1 µM (FXN mRNA [2]; [5]) | fold induction at 5 µM (FXN mRNA [2]; [6]) | 3816 1 uM (FXN mRNA fold change) (FXN mRNA [1]; [3]) | 3816 5 uM (FXN mRNA fold change) (FXN mRNA [1]; [4]) | FXN mRNA fold change, 321B 1 uM (FXN mRNA [2]; [5]) | FXN mRNA fold change, 321B 5 uM (FXN mRNA [2]; [6]) | further results
NC(=O)c1ccc(I)c([N+](=O)[O-])c1 [BSI-201] | 1.03 | 0.985 |  |  |  |  | fold induction at 1 µM (FXN mRNA [1]; [3]): 1.13; fold induction at 5 µM (FXN mRNA [1]; [4]): 0.844
O=C(c1ccc(C(=O)N2CCC(N3CCCC3)CC2)c(Nc2ccccc2)c1)N1CCC(N2CCCC2)CC1 [UNC1215] |  |  | 0.6911 | 0.8743 |  |  | 
Anacardic Acid |  |  | 1.162 | 1.01 | 1.169 | 0.8356 | 
O=C(Nc1ccc(Cl)cc1)C1CCCN(C(=O)c2cc(C(F)(F)F)cc(C(F)(F)F)c2)C1 (stereo not drawn) [CCG-100602] |  |  | 1.147 | 1.213 | 0.8325 | 0.9592 | 
(−)-Neplanocin A |  |  | 1.067 | 0.943 | 0.8734 | 1.105 | 
Oxamflatin |  |  | 0.3506 | 0.108 | 0.5612 | 0.2391 | 
UNC0321 (trifluoroacetate salt) |  |  | 0.9323 | 0.8929 | 0.7517 | 0.605 | 
Nc1ncnc2c1ncn2[C@@H]1O[C@H](C[C@@H](N)CC[C@H](N)C(=O)O)[C@@H](O)[C@H]1O [Sinefungin, reference compound] | 0.551 | 0.821 |  |  |  |  | fold induction at 1 µM (FXN mRNA [1]; [3]): 0.895; fold induction at 5 µM (FXN mRNA [1]; [4]): 0.862
O=C(O)c1ccc(O)c2ncccc12 [IOX1] |  |  | 1.272 | 0.8722 | 0.9479 | 0.7185 | 
CC(NC(=O)c1ccccc1/N=C/c1c(O)ccc2ccccc12)c1ccccc1 (stereo not drawn) [Sirtinol] | 0.81 | 1.02 |  |  |  |  | fold induction at 1 µM (FXN mRNA [1]; [3]): 1.06; fold induction at 5 µM (FXN mRNA [1]; [4]): 0.92
CCCCCOc1ccc(/C=C\c2cccc(O)c2C(=O)O)cc1 [CAY10669] |  |  | 0.8709 | 1.074 | 0.7796 | 0.3094 | 
CN(C)NC(=O)CCC(=O)O [Daminozide] |  |  |  |  |  |  | fold induction at 1 µM (FXN mRNA [1]): 0.824; fold induction at 5 µM (FXN mRNA [1]): 0.881; fold induction at 1 µM (FXN mRNA [2]): 1.04; fold induction at 5 µM (FXN mRNA [2]): 0.898
O=C(CCCCCCC(=O)Nc1ccccc1)NO [SAHA] |  |  | 0.4857 | 0.0916 | 0.4256 | 0.1923 | 
COCCCn1c(N)c(C(=O)NC2CCCC2)c2nc3ccccc3nc21 [CAY10591] |  |  | 1.311 | 1.377 | 0.9828 | 1.437 | 
O=C(O)CNC(=O)C(=O)O [N-Oxalylglycine] |  | 0.68 |  |  |  |  | fold induction at 1 µM (FXN mRNA [1]; [3]): 0.708; fold induction at 5 µM (FXN mRNA [1]; [4]): 1.03
NC(=O)c1cccnc1 [Nicotinamide] | 0.687 | 0.702 |  |  |  |  | fold induction at 1 µM (FXN mRNA [1]; [3]): 0.852; fold induction at 5 µM (FXN mRNA [1]; [4]): 0.775
Nc1nccc2c1ncn2C1C=C(CO)C(O)C1O (stereo not drawn) [3-Deazaneplanocin A] |  |  | 0.1514 | 0.2102 | 0.2641 | 0.1265 | 
Nc1ccccc1NC(=O)CCCCCCC(=O)Nc1ccccc1 [CAY10433] |  |  | 0.8309 | 0.8827 | 1.03 | 0.7782 | 
O=c1ncccn1[C@@H]1O[C@H](CO)[C@@H](O)[C@H]1O [Zebularine] | 1.07 | 1.03 |  |  |  |  | fold induction at 1 µM (FXN mRNA [1]; [3]): 1.07; fold induction at 5 µM (FXN mRNA [1]; [4]): 1.09
Nc1nc(OCc2cc(Br)cs2)c2[nH]cnc2n1 [Lomeguatrib] | 1.05 | 1.28 |  |  |  |  | 
CN(C)CCCCC(=O)Nc1ccc(NC(=S)NC(=O)c2ccc(C(C)(C)C)cc2)cc1 [Tenovin-6] |  |  |  |  | 1.23 | 1.282 | 

Compound | fold induction at 1 µM (FXN mRNA [2]; [5]) | fold induction at 5 µM (FXN mRNA [2]; [6]) | 3816 1 uM (FXN mRNA fold change) (FXN mRNA [1]; [3]) | 3816 5 uM (FXN mRNA fold change) (FXN mRNA [1]; [4]) | FXN mRNA fold change, 321B 1 uM (FXN mRNA [2]; [5]) | FXN mRNA fold change, 321B 5 uM (FXN mRNA [2]; [6]) | further results
COC(=O)CNC(=O)C(=O)OC [DMOG] |  |  | 0.9685 | 0.9131 | 0.7317 | 0.9433 | 
O=C(O)c1cccc2ccccc12 [1-Naphthoic Acid] | 0.819 | 0.72 |  |  |  |  | fold induction at 1 µM (FXN mRNA [1]; [3]): 1.05; fold induction at 5 µM (FXN mRNA [1]; [4]): 0.869
O=C(O)CCNc1cc(N2CCc3ccccc3CC2)nc(-c2ccccn2)n1 [GSK-J1 (sodium salt)] |  |  | 0.8866 | 0.7892 | 0.9779 | 0.9423 | 
CC(C)[C@H](C(=O)Nc1ccc(C(=O)NO)cc1)c1ccccc1 [(S)-HDAC-42] |  |  | 0.2419 | 0.1894 |  | 0.6941 | 
CN(C)c1ccc(C(=O)NCCCCCC(=O)NO)cc1 [CAY10398] |  |  | 0.6921 | 0.2339 | 0.5049 | 0.2106 | 
CCOC(=O)c1ccnc(C(=O)OCC)c1 [2,4-DPD] |  |  | 1.179 | 0.9456 | 0.877 | 0.7372 | 
Cc1ccc(NC(=O)CCCCCC(=O)Nc2ccccc2N)cc1 [Pimelic Diphenylamide 106] |  |  | 0.7457 | 0.4858 | 0.694 | 0.2094 | 
O=C(O)c1ccnc(C(=O)O)c1 [2,4-Pyridinedicarboxylic Acid] | 0.458 | 0.645 |  |  |  |  | fold induction at 1 µM (FXN mRNA [1]; [3]): 0.885; fold induction at 5 µM (FXN mRNA [1]; [4]): 0.888
Nc1ncn([C@H]2C[C@H](O)[C@@H](CO)O2)c(=O)n1 [Decitabine] | 1.15 | 1.53 |  |  |  |  | 
Oc1cc(O)c2cc(O)c(-c3cc(O)c(O)c(O)c3)[o+]c2c1 [Delphinidin chloride] | 1.09 | 1.04 |  |  |  |  | fold induction at 1 µM (FXN mRNA [1]; [3]): 0.954; fold induction at 5 µM (FXN mRNA [1]; [4]): 0.885
C=C(C)[C@@H](CC=C(C)C)C[C@@]12C[C@@H](CC=C(C)C)C(C)(C)[C@@](CC=C(C)C)(C(=O)C(C(=O)c3ccc(O)c(O)c3)=C1O)C2=O [Garcinol] | 0.63 | 1.33 |  |  |  |  | fold induction at 1 µM (FXN mRNA [1]; [3]): 1.01; fold induction at 5 µM (FXN mRNA [1]; [4]): 1.09
CC(C)(C)OC(=O)Nc1ccc(-c2cc(C(=O)NCCCCCCC(=O)NO)no2)cc1 [CAY10603] |  |  | 0.5205 | 0.07004 | 0.3592 |  | 
COc1ccccc1S(=O)(=O)Nc1ccc2c(c1)CN(C)C(=O)N2 [PFI-1] |  |  | 0.9175 | 0.923 | 0.9577 | 0.9071 | 
CN1CCc2c(c3ccccc3n2Cc2ccc(C(=O)NO)cc2)C1 [Tubastatin A] |  |  | 0.9276 | 0.9192 | 0.8993 | 1.038 | 
CC(/C=C/C(=O)NO)=C\[C@@H](C)C(=O)c1ccc(N(C)C)cc1 [Trichostatin A] |  |  | 0.9338 | 0.6921 | 1.023 | 0.7721 | 
COc1cc2c(NC3CCN(C)CC3)nc(N3CCCN(C)CC3)nc2cc1OCCCN(C)C [UNC0224, 7-[3-(Dimethylamino)propoxy]-2-(hexahydro-4-methyl-1H-1,4-diazepin-1-yl)-6-methoxy-N-(1-methyl-4-piperidinyl)-4-quinazolinamine, reference compound] | 0.876 | 0.875 |  |  |  |  | fold induction at 1 µM (FXN mRNA [1]; [3]): 0.958; fold induction at 5 µM (FXN mRNA [1]; [4]): 0.656
CC(=O)Nc1ccc(NC(=S)NC(=O)c2ccc(C(C)(C)C)cc2)cc1 [tenovin-1] |  |  |  |  | 1.444 |  | 
N=C1NC(=O)/C(=C/c2ccc(O)cc2)S1 [Mirin] |  |  |  |  |  |  | fold induction at 1 µM (FXN mRNA [1]): 1.06; fold induction at 5 µM (FXN mRNA [1]): 0.679; fold induction at 1 µM (FXN mRNA [2]): 1.08; fold induction at 5 µM (FXN mRNA [2]): 1.31
CNCc1ccc(-c2[nH]c3cc(F)cc4c3c2CCNC4=O)cc1 [AG-014699] | 0.895 | 1 |  |  |  |  | fold induction at 1 µM (FXN mRNA [1]; [3]): 1.06; fold induction at 5 µM (FXN mRNA [1]; [4]): 0.892
N#C/C(=C\c1ccc(-c2cc(Cl)ccc2Cl)o1)C(=O)Nc1cccc2ncccc12 [AGK2] |  |  | 1.206 | 1.101 | 1.115 | 1.053 | 
